Experiments:
Assay type in all cases: cell-based, human
[1] = tested on: HbF-positive primary erythroid progenitors; test: Anti-HbF FITC immunostaining of primary erythroid progenitors; details: anti-HbF FITC / DAPI, 500 cells counted; 15.5% HbF-positive at baseline in untreated cells
Procedure: The two-phase liquid culture system was established as previously published by Fibach et al. using buffy coat mononuclear cells, purchased from Carter Blood Care (Fort Worth, TX) in accordance with the guidelines of the Institutional Review Board at the University of Texas at Dallas. During phase 1, cells were grown in IMDM medium with 30% fetal bovine serum and 50 ng/mL each of the granulocyte-monocyte colony-stimulating factor, Interleukin-3, and stem cell factor. Subsequently, phase 2 was initiated on day 7 with the addition of erythropoietin (2 U/mL) and stem cell factor (50 ng/mL). The cells were treated on Day 11 with the different test compounds and harvested on Day 14 (72 hr incubation).
Primary erythroid progenitor cytospin cell preparations were fixed with 4% paraformaldehyde in phosphate buffered saline for 15 min, washed, and then permeabilized with 0.3% Trition-100 solution for 10 min. Cells were then blocked in a 5% bovine serum albumin solution and immunostaining performed at 4°C overnight with anti-HbF fluorescein isothiocyanate (FITC) conjugated antibody (Bethyl Laboratories Inc., TX). Cell nuclei were stained with mounting medium containing 4′,6-diamidino-2-phenylindole (DAPI; Santa Cruz Biotechnology, CA). Primary cells were photographed with an Olympus BX 51 phase contrast epifluorescent microscope equipped with Hoffman Modulation optics. Phase-contrast images were recorded with a CCD camera (1/100 sec exposure) and fluorescence images were photographed through 485/520 nm emission filter. The percent of HbF positive cells was calculated by dividing the number of FITC positive cells by total cells (DAPI positive).
Figure 3 JMA33 and JMA26 induce HbF in primary erythroid cells. (a) Day 11 erythroid progenitors were treated for 48 hr with the controls agents and the FK228 analogues shown and then analyzed by RT-qPCR. Untreated cells (UT) were used as a control and normalized to one. Data were calculated as the means ± SEM. […] The images generated were used to count 500 DAPI positive cells and the %FITC positive cells were calculated accordingly.

[2] = tested on: HDAC activity in HeLa cells; test: HDAC Fluorescent Activity Assay (Fluor de Lys) in HeLa cells; details: 300 nM; HeLa cells, Fluor de Lys substrate; maximal inhibition
Procedure: (§1) The HDAC Fluorescent Activity Assay (Enzo Life Science, Farmingdale, NY) was used to measure HDAC inhibition in HeLa cells in a 96-well format using Trichostatin A as the positive control per the manufacturer's protocol. This assay is based on the Fluor de Lys (Fluorogenic Histone Deacetylase Lysyl (FDL)) Substrate/Developer. The procedure was as follows: the test compounds FK228, JMA26, and JMA33 were added to HeLa cells along with the FDL substrate to allow intracellular drug activation then fluorescence levels were read on the fluorometer at 440 nm (CytoFluor II, PerSeptive Biosystems, Farmingdale, NY). The drug concentrations tested were based on the amount required for HbF induction in primary cells. Data was reported as the mean ± standard deviation (SD) for at least five replicates.
(§2) To ascertain the mechanism of HbF induction by the lead compounds, we performed an in vivo assay to investigate the ability of JMA26 and JMA33 to act as HDAC inhibitors. The HDAC Fluorescent Activity Assay designed to measure HDAC activity in HeLa cells was completed in a 96-well format. The assay is based on the fact that the Fluor de Lys substrate is deacetylated by HDACs to generate a fluorescent readout. TSA (0.5 to 1000 nM) was used to establish the assay in HeLa cells, showing about 80% HDAC inhibition in our system (Figure 4(a)).
(§3) Figure 4 HDAC inhibition assay. The HDAC Fluorescent Activity Assay was used to measure HDAC inhibition in HeLa cells (See Section 2). Compounds and FDL substrate were added to HeLa cells to allow drug activation in vivo then fluorescence levels were quantified on the fluorometer at 440 nm. (a) Trichostatin A (TSA) was used as the control. (b) Inhibition studies were conducted for FK228 showing maximal HDAC inhibition at the 300 nM concentration. (c) Similar studies were performed for JMA33 and JMA26. The data are reported as the means ± SEM.

[3] = tested on: HeLa cells; test: as above; details: 300 nM
Procedure: as §1, §2, §3

FK228
increase in HbF-positive cells [1]: 3.5 fold
HDAC inhibition [2]: about 85%
cell toxicity [3]: marked cell toxicity
